Reference: ChEMBL document CHEMBL1201862, “PubChem BioAssay data set” (2004)
Counter-ions that a name gives are not always drawn. Calls of active or inactive are those of the source.

Tests used:
[1] = target: Sphingosine 1-phosphate receptor 2 (Homo sapiens, UniProt O95136); assay: Dose Response Cell Based Assay for Agonists of the S1P2 Receptor. [Related pubchem assays: 729, 736, 843 ]; assay type: functional
[2] = HIV-1 Vif–A3G interaction blockers – biochemical, TR-FRET, GST-Vif 1-94, biotin-A3G peptide, dose response retest, primary screen (AID 1117319); assay type: functional;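 also: TR-FRET signal of purified GST-Vif binding a biotinylated A3G peptide; inhibitors lower the FRET signal by blocking Vif and A3G binding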
[3] = target: Luciferin 4-monooxygenase (Photinus pyralis, UniProt P08659); assay: inhibition of purified Photinus pyralis luciferase – biochemical, luminescence, dose response (AID 1891)
[4] = Luminescence Cell-Based Dose Confirmation HTS to Identify Inhibitors of Platelet Dense Granule Release. [Related pubchem assays: 1663 (Primary HTS), 1678 (Summary of Project)]; assay type: functional
[5] = Fluorescence Cell-Based Dose Response to Identify Inhibitors of Thrombin Receptor-Activating Peptide SFLLRN-Mediated P-Selectin Induction on Platelets. [Related pubchem assays: 1663 (Primary HTS), 1889 (retest at dose ), 1891 (counterscreen), 1678 (Project Summary)]; assay type: functional
[6] = viability loss in HepG2 hepatoma cells – cell-based, cherry-picks, set 5, cytotoxicity control, dose response (AID 1053118); assay type: functional
[7] = viability loss in CEM21 cells – cell-based, CellTiter-Glo luminescence, cherry-picked, cytotoxicity control for viral fusion inhibitor project, dose response (AID 652042); assay type: functional;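 also: potency for signal decrease meaning cytotoxicity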
[8] = A549 cell cytotoxicity, dose response, cytotoxicity control, plate reader, cherry-pick, antagonist series (AID 743412); assay type: functional, cell-based
[9] = viability loss in A549 lung cancer cells – cell-based, cherry-picks, […], cytotoxicity control, dose response (AID 1053119); assay type: functional
[10] = blockers of bursicon-stimulated LGR2 cAMP reporter – cell-based, HEK293, CRE-luciferase reporter, cherry pick, set 2, dose response (AID 743343); assay type: functional;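 also: transfected cells were stimulated with diluted bursicon conditioned medium after compound addition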
[11] = toxicity toward HepG2 liver cells – cell-based, plate reader, cherry-pick, antagonist series, cytotoxicity control, dose response (AID 743416); assay type: functional
[12] = viability loss in HEK293 cells – cell-based, plate reader, cherry-picked samples, cytotoxicity control, dose response (AID 743446); assay type: functional
[13] = Dd2 parasite growth inhibition in erythrocytes – SYBR Green, dry powder samples, set 9, dose response (AID 1159568); assay type: functional, cell-based
[14] = blockade of melanocortin 4 receptor signaling – cell-based, plate reader, cherry pick, counter-screen for LGR2 antagonist project, dose response (AID 743444); assay type: functional;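 also: transfected HEK 293 cells stimulated with alpha-MSH peptide; potency of inhibitors of the alpha-MSH evoked signal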
Genome polyprotein = Genome polyprotein (Hepatitis C virus, UniProt Q2Q167); assay: disruption of hepatitis C core self-association – biochemical, TR-FRET, dose response (AID 2159); parameters: species or system Hepacivirus hominis;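 also: blocks dimerization of HCV core protein measured by TR-FRET between tagged core106 pairs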
SUMO-activating enzyme [15] = target: T1, SUMO-activating enzyme (Homo sapiens, UniProt Q9UBT2); assay: blockers of SAE1/SAE2–UBC9 SUMO transfer – biochemical, HTRF, uHTS, primary screen (AID 2006); assay type: protein-complex assay
SUMO-activating enzyme [16] = target: T1, SUMO-activating enzyme; assay: blockers of UBC9-mediated SUMO conjugation – biochemical, AlphaScreen, SUMOylation inhibitor project, confirmation (AID 2018); assay type: functional
[17] = target: Induced myeloid leukemia cell differentiation protein Mcl-1 (Homo sapiens, UniProt Q07820); assay type: functional
[18] = Plasmodium falciparum Dd2 Sybr green parasite growth Measured in Cell-Based and Microorganism Combination System Using Plate Reader - 2153-01_Inhibitor_Dose_DryPowder_Activity_Set3.; assay type: functional
[19] = growth inhibition of PfATP4-mutant resistant parasites – NITD609-resistant line, SYBR Green, dry powder, dose response (AID 1159571); assay type: functional, cell-based;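 also: parasites synchronized at ring stage by sorbitol before testing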
[20] = P. falciparum Dd2 growth inhibitors, dose response, SYBR Green, cherry-picked samples (AID 1159567); assay type: functional, cell-based
[21] = Dd2 malaria parasite growth inhibition potency – SYBR Green, dry powder samples, dose response (AID 1159566); assay type: functional, cell-based;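 also: potency for growth inhibition with lower SYBR green DNA signal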
[22] = growth inhibition of yeast DHODH-expressing 3D7 parasites – SYBR Green, dry powder samples, dose response (AID 1159570); assay type: functional, cell-based;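 also: parasite growth measured after 72 hours of compound exposure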
[23] = Dd2 parasite growth inhibition in erythrocytes – SYBR Green, dry powder samples, set 4, dose response (AID 1159572); assay type: functional, cell-based
[24] = target: G-protein coupled receptor 183 (Homo sapiens, UniProt P32249); assay: SAR confirmation of small molecule antagonists of the EBI2 receptor via a luminescent beta-arrestin assa.; assay type: functional
Streptokinase A = target: T2, Streptokinase A (Streptococcus pyogenes serotype M1, UniProt P10520); assay: viability-normalized secreted streptokinase activity reduction – plasminogen activation absorbance, OD405, dose response (AID 1914); assay type: functional, Streptococcus pyogenes M1 GAS;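 also: secreted streptokinase activity via plasminogen activation per viability signal from cell pellet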
T2 sequence (P10520 whole entry): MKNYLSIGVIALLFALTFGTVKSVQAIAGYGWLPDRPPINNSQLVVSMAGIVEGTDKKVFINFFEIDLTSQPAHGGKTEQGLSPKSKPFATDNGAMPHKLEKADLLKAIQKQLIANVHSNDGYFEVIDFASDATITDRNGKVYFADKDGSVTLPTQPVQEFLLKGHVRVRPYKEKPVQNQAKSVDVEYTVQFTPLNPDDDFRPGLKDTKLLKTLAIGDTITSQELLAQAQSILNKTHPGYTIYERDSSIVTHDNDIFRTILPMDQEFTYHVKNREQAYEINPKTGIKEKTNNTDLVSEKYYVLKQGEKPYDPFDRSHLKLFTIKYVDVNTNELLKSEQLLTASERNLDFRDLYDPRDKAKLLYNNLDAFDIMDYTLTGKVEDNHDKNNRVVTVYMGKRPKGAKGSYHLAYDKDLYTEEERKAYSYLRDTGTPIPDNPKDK

Streptococcus = assay: GAS UMAA2166 growth inhibition – luminescence, BacTiterGlo, counter-screen for streptokinase expression inhibitor project, dose response (AID 1915); assay type: functional, organism-based;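 also: potency for reduction of bacterial viability or growth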
[25] = system: Streptococcus sp. 'group A'; assay: Streptococcus pyogenes SK(-)GAS viability under kanamycin – luminescence, BacTiterGlo, confirmation, counter-screen for streptokinase expression inhibitor project, dose response (AID 1900); assay type: functional, organism-based
P388 = assay: cells; assay type: functional; settings: Mus musculus, P388
P388/ADR = assay: cells; assay type: functional; settings: Mus musculus
[26] = Luminescence-based dose response cell-based high throughput screening assay for cytotoxic compounds using the IEC-6 intestinal epithelial cell line. [Related pubchem assays: 1858 (Summary AID.), 1825 (Counterscreen.), 1907 (Confirmation screen.)]; assay type: functional
SN12K1 = assay: cells; assay type: functional; settings: Homo sapiens, SN12K1
[27] = HCT116 cell viability decrease, GSK3B pretreatment – CellTiter-Glo, IC50, dose response (AID 1117339); assay type: functional; settings: HCT-116
[28] = Reduced DLD-1 viability, concentration-response, CellTiter-Glo luminescence (AID 1117352); assay type: functional
[29] = CellTiter-Glo luminescence survival assay, SW480 colon tumor line, concentration-response curve, half-maximal inhibitory concentration (AID 1117338); assay type: functional
[30] = RKO cell viability reduction, dose response, CellTiter-Glo luminescence (AID 1117322); assay type: functional
[31] = cytotoxicity toward Colo320 cells – cell-based, CellTiter-Glo luminescence, IC50, dose response (AID 1117334); assay type: functional; settings: COLO 320
[32] = SNU-C1 cell viability reduction, dose response, CellTiter-Glo luminescence (AID 1117323); assay type: functional, cell-based
[33] = cytotoxicity toward HCT116 cells – cell-based, CellTiter-Glo luminescence, IC50, dose response (AID 1117332); assay type: functional; settings: HCT-116
[34] = cytotoxicity toward HT-29 cells – cell-based, CellTiter-Glo luminescence, IC50, dose response (AID 1117330); assay type: functional

T1 sequence (Q9UBE0 whole entry): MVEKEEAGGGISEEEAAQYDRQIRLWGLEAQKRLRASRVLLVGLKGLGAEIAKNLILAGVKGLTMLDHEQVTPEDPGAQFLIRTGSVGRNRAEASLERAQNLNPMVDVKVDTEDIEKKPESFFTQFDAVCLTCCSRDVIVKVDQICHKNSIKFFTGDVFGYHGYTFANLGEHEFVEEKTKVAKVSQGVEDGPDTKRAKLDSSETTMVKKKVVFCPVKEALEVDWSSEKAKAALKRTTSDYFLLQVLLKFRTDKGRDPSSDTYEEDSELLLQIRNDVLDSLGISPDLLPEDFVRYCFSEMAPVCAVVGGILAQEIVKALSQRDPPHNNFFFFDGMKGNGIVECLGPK
T1 sequence (Q9UBT2 whole entry): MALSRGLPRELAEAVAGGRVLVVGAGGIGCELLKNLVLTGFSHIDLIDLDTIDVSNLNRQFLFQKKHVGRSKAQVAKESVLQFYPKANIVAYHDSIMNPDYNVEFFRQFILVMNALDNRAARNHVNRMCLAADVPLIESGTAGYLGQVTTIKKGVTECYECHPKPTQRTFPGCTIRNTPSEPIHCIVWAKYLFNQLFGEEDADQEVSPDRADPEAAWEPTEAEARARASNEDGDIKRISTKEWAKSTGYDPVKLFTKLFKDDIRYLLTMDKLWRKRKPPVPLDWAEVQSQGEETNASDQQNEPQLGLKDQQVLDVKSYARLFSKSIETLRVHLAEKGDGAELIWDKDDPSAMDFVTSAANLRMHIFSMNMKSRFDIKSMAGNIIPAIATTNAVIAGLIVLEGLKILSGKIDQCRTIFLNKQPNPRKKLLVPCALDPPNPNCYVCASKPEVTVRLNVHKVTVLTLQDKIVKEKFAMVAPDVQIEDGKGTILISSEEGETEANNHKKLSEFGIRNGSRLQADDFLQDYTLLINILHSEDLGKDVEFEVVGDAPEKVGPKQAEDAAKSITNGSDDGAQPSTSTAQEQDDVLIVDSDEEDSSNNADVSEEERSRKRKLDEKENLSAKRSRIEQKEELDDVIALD
Sphingosine 1-phosphate receptor 2, sequence (O95136 whole entry): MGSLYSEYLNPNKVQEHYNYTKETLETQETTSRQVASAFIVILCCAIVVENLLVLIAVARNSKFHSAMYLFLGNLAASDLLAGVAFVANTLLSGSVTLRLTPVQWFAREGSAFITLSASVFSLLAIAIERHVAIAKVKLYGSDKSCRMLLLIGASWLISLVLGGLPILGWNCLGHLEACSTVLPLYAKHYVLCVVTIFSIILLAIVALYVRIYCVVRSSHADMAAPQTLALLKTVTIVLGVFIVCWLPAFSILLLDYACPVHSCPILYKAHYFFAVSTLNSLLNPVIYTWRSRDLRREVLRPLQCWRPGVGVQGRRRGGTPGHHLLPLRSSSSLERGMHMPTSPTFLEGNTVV
Luciferin 4-monooxygenase, sequence (P08659 whole entry): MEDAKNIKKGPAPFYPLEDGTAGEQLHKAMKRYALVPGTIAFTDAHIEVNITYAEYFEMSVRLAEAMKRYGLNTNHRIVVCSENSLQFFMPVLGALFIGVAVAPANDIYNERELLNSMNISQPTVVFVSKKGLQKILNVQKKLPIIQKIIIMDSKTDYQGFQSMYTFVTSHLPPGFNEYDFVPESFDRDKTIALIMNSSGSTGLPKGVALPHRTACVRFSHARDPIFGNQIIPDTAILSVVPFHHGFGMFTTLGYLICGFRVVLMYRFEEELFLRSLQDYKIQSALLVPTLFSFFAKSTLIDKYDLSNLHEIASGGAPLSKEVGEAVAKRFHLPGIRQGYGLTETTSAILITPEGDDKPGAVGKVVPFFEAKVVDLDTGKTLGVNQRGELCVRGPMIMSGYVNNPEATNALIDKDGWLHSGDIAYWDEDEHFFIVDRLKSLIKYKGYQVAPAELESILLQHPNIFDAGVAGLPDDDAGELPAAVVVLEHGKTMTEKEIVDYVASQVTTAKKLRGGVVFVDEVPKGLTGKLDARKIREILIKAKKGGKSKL
Genome polyprotein, sequence (Q2Q167 whole entry): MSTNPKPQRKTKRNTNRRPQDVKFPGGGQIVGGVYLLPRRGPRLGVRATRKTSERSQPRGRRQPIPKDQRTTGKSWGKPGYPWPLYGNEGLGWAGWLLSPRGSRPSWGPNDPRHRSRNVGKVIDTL
G-protein coupled receptor 183, sequence (P32249 whole entry): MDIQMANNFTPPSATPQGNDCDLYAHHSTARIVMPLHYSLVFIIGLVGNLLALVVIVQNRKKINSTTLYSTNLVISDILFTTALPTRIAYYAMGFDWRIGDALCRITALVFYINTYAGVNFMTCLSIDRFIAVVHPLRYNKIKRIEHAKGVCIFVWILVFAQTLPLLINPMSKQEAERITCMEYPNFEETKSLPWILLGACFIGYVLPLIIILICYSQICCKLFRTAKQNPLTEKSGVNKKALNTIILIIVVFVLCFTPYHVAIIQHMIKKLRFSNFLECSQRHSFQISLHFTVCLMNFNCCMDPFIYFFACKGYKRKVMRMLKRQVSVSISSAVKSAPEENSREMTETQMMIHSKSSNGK
Induced myeloid leukemia cell differentiation protein Mcl-1, sequence (Q07820 whole entry): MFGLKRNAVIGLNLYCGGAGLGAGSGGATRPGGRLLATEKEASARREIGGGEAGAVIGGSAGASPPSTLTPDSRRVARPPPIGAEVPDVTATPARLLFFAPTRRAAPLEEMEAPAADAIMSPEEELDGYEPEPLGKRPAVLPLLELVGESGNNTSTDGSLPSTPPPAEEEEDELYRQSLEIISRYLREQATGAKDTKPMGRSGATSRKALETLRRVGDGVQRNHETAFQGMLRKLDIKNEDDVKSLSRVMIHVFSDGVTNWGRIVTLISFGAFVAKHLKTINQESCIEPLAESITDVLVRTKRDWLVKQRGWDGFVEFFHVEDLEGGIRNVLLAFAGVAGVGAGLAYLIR

CCOC(=O)c1c(C)n(C)c2ccc(OCC(O)Cn3nc(C)cc3C)cc12 (stereo not given)
EC50 [1]: 4.71 µM (active)

Cn1cc(CN2CCN(CCO)CC2)c(-c2ccc(Oc3ccccc3)cc2)n1
IC50 [2]: > 100 µM (active)

CCc1ccc(S(=O)(=O)N/N=C\c2ccc([N+](=O)[O-])o2)cc1
EC50 [3]: > 112 µM (not active) | EC50 [4]: 2.02 µM (active) | EC50 [5]: < 30 µM (active)

O=C(C[C@@H]1C[C@@H]2c3cc(NC(=O)c4ccc5c(c4)OCO5)ccc3O[C@@H]2[C@@H](CO)O1)NCc1ccc(Oc2ccccc2)cc1
AC50 [6]: 37.1 µM (active) | AC50 [7]: 26.1 µM (active) | AC50 [8]: 21.2 µM (active) | AC50 [9]: 30.2 µM (active) | AC50 [10]: 33.3 µM (active) | AC50 [11]: 27.7 µM (active) | AC50 [12]: 24.7 µM (active) | AC50 [13]: 5.69 µM (active) | AC50 [14]: 7.28 µM (active)

COc1ccccc1/C=C/C=c1\sc2nc(=O)c(Cc3ccccc3)nn2c1=O
IC50 (Genome polyprotein): > 49.8 µM (not active) | IC50 (SUMO-activating enzyme [15]): 11.8 µM (active) | IC50 (SUMO-activating enzyme [16]): 8.53 µM (active)

CN(C)c1ccc(/C=N/N(Cc2ccccc2)c2ccccc2)cc1
IC50 [17]: 1.52 µM (not active)

N#C[C@H]1[C@@H](c2ccc(C#CC3CCCC3)cc2)[C@@H](CO)N1S(=O)(=O)Cc1ccccc1
AC50 [18]: 3.05 µM (active) | AC50 [19]: 3.23 µM (active) | AC50 [20]: 2.73 µM (active) | AC50 [21]: 0.982 µM (active) | AC50 [22]: 2.06 µM (active)

COc1ccc2c3c([nH]c2c1)[C@H](CO)N(C(C)=O)CC31CCN(C(=O)CN2CCOCC2)CC1
AC50 [23]: 2.59 µM (active)

CC(C)c1ccc(CN2CCN(C(=O)/C=C/c3ccc(Br)cc3)CC2)cc1
IC50 [24]: 0.00592 µM (active)

N=c1ccn2c(n1)O[C@H]1[C@H](O)[C@@H](CO)O[C@H]12 [ANCITABINE HYDROCHLORIDE]
EC50 (Streptokinase A): > 150 µM (not active) | EC50 (Streptococcus): 53.1 µM (active) | EC50 [25]: 3.2 µM (active) | GI50 (P388): 0.103 µM (active) | GI50 (P388/ADR): 0.205 µM (active) | IC50 [26]: 1.79 µM (active) | GI50 (SN12K1): 0.191 µM (active)

CCCCCCCC(=O)OCC(COC(=O)CCCCCCC)OC(=O)CCCCCCC [TRICAPRILIN]
IC50 [27]: > 20 µM (inactive) | IC50 [28]: > 20 µM (inactive) | IC50 [29]: > 20 µM (inactive) | IC50 [30]: > 20 µM (inactive) | IC50 [31]: > 20 µM (inactive) | IC50 [32]: > 20 µM (inactive) | IC50 [33]: > 20 µM (inactive) | IC50 [34]: > 20 µM (inactive)
